{
  "source": "patent US11248234B2",
  "about": "“Herbicide-resistant hydroxyphenylpyruvate dioxygenases” (BASF SE, priority 2015, dated 2022)",
  "key": {"[1]": {"test_system": "transgenic T1 Arabidopsis plants, Scenedesmus HPPD alanine 318 exchanged by glycine and leucine 350 substituted with methionine", "experiment": "T1 spray application", "type": "in vivo, Arabidopsis thaliana", "details": "FIG. 3; pictures 8 days after treatment", "method": "(§1) Wildtype plants were sprayed in parallel at each application rate (two lower pots below dashed line) whereas T1 plants are represented by the five upper pots. Pictures were taken 8 days after treatment.\n(§2) Transgenic T1 Arabidopsis plants were sprayed with the indicated amount of HPPD inhibiting herbicide. The T1 spray application is a fast method to evaluate the potential of transgenic traits even though a segregating population and only one event of respective traits is tested."}, "[2]": {"test_system": "transgenic T1 Arabidopsis plants, Scenedesmus HPPD phenylalanine 363 exchanged by isoleucine", "experiment": "T1 spray application", "type": "in vivo, Arabidopsis thaliana", "details": "FIG. 3; highest application rate", "method": "as §1, §2"}},
  "data": [
    {"smiles": "Cc1c(C(=O)c2cnn(C)c2O)ccc(S(C)(=O)=O)c1C1=NOCC1", "note": "[Inhibitor 1, [3-(4,5-dihydroisoxazol-3-yl)-2-methyl-4-methylsulfonyl-phenyl]-(5-hydroxy-1-methyl-pyrazol-4-yl)methanone]", "values": [
      {"measurement": "tolerance of T1 plants to spray", "setting": "[1]", "value": "good tolerance"},
      {"measurement": "tolerance of T1 plants to spray", "setting": "[2]", "value": "highly tolerant"}
    ]}
  ]
}
